Measured values published in patent US12478509B2, “Layered composite for scar treatment and prevention” (THE GOVERNMENT OF THE UNITED STATES AS REPRESENTED BY THE …, priority 2019, dated 2025).

Tests used:
[1] = tested on: IL-1β, IL-2, IL-6, IL-13, G-CSF, and MIP-1α; assay: inflammatory cytokines
p38 MAPK = p38 MAPK activation in TGF-β1 stimulated HDF; format: cell-based, human
[2] = tested on: human dermal fibroblasts (HDF); assay: human dermal fibroblast / myofibroblast studies; format: cell-based
mouse DPT wounds = assay: neutrophil infiltration in mouse DPT burn wounds; format: in vivo

`Cc1ccc(=O)n(-c2ccccc2)c1` [Pirfenidone, 5-methyl-1-phenyl-2-(1H)-pyridone] was tested, and the “key inflammatory cytokines IL-1β, IL-2, IL-6, IL-13, G-CSF, and MIP-1α” value [1] was “reduced”, the “p38 MAPK activation” value (p38 MAPK) was “reduced” and the “HDF transdifferentiation to myofibroblasts” value [2] was “inhibited”. The “collagen deposition and fibrosis-related gene expression” value [2] was “decreased”, the “contractile machinery of activated dermal myofibroblasts” value [2] was “weakened” and the neutrophil infiltration (mouse DPT wounds) was “decreased”.
